The test system of data set [1] is MYCN. The data set is described as follows: Immunoblotting of MYCN in neuroblastoma cells. The data set is classed as cell-based, human. The following applies: 24 h. Here is the method: Following treatment, cells were lysed on ice using radioimmunoprecipitation (RIPA) buffer with phosphatase inhibitors (P5726, Sigma Aldrich), protease inhibitors (P8340, Sigma Aldrich), and phenylmethanesulfonylfluoride (PMSF, P7626, Sigma Aldrich) for 60 min. Cell lysates were centrifuged at 17,000 rpm for 30 min at 4 °C. Pierce™ BCA Protein Assay (Thermo Fisher Scientific, Inc.) determined protein concentration and proteins were separated by electrophoresis on sodium dodecyl sulfate polyacrylamide (SDS-PAGE) gels. Expected size of the targeted proteins was confirmed using molecular weight markers (Precision Plus Protein Kaleidoscope, Bio-Rad, Hercules, CA, USA). […] Immunoblots were developed with Luminata Classico or Crescendo Western horseradish peroxidase substrate (EMD Millipore, Burlington, MA, USA). Either anti-vinculin or anti-β-actin (as available from manufacturer) served as an internal loading control. We performed densitometry of Western blots using ImageJ software (Ver 1.49, http://imagej.nih.gov/ij (accessed on 9 February 2022).
Background: A western blot detects proteins with antibodies after separation by electrophoresis.

Data set [2] relates to SK-N-BE(2) cells. The data set is described as follows: alamarBlue viability, SK-N-BE(2). The data set is classed as cell-based, human. As to conditions: 24 h. Here is the method:
CellTiter 96® Aqueous One Solution Cell Proliferation assay (Promega, Madison, WI, USA) was used to examine proliferation, and alamarBlue® assay (Thermo Fisher Scientific, Inc.) was used to evaluate viability. Cells, concentrations ranging from 5 × 10^3 to 1.5 × 10^4, depending on cell type due to wide variation in growth characteristics between established cell lines and PDX cells, were plated in 96-well plates and treated with increasing doses of 792 or 1154 for 24 h. CellTiter 96® or alamarBlue® dye (10 µL) was added for proliferation and viability assays, respectively. A microplate reader (Epoch Microplate Spectrophotometer, BioTek Instruments, Winooski, VT) measured absorbance at 490 nm for CellTiter 96® and at 570 nm for alamarBlue®, using 600 nm as a reference. […] Experiments were completed with at least three biologic replicates, and data reported as fold change ± SEM. […]
Supplemental Table S1: Neuroblastoma cells had the highest sensitivity to 792 and 1154.
(A) SK-N-AS and (B) SK-N-BE(2) cells (1.5 x 104) were plated in 96-well plates and treated with increasing doses of nine PP2A activating compounds for 24 hours. Compounds 792 and 1154 had the lowest LD50s of the nine compounds investigated in both cell lines.
Supplemental Figure S4: SK-N-AS cells were treated with FTY720 (0, 5 μM), 792 (10 μM), or 1154 (10 μM) for 24 hours and PP2A activity was measured. […]

Data set [3] in a line: Microsome (oxidative metabolism) stability, mouse. The data set is classed as in vitro ADME. The following applies: for half-life at 1 µM: liver microsomes 0.5 mg/mL, NADPH, read-out: T1/2 Mouse; for microsomal CLint at 1 µM: liver microsomes, read-out: CL Mouse. Here is the method:
Microsome stability assays were performed by Bioduro, LLC. Briefly, 2.5 µL (100 µM in DMSO) of test compounds are added to 197.5 µL of human, rat, or mouse microsome preparation (0.633 mg/mL in phosphate buffer) and mixed gently at 37 °C. The reaction is started by adding 50 µL NADPH (5 mM in phosphate buffer) and mixing at 37 °C. The final reaction microsome concentration is 0.5 mg/mL. The reaction is sampled at 0, 5, 15, 30, and 60 min. Reaction aliquots are quenched by adding to 1:1 methanol–acetonitrile containing analytical standards and analyzed by liquid chromatography with tandem mass spectrometry (LC-MS/MS).
(Liver microsomes are a subcellular fraction often used to study metabolism.)

In data set [4] the test system is SH-EP cells. The data set is described as follows: Annexin V/PI apoptosis flow cytometry, SH-EP. It counts as cell-based, human. The following applies: 10 µM, 24 h. Here is the method: Apoptosis was evaluated using the FITC Annexin V Apoptosis Detection Kit (BD Biosciences) according to manufacturer’s protocol. SH-EP cells (5 × 10^5) were treated with either 792 or 1154 (10 µM) for 24 h. Cells were trypsinized, washed with PBS, centrifuged, and re-suspended in 100 μL of 1× binding buffer (0.1 M HEPES/NaOH, 1.4 M NaCl, 25 mM CaCl2, pH 7.4). Annexin V-FITC staining solutions were added, and cells were incubated for 15 min at room temperature (20–25 °C) in the dark. Cells were washed in 1 mL of 1× binding buffer, centrifuged, and re-suspended in 500 μL of 1× binding buffer. PI was added, and cells sat on ice for 1 h prior to flow cytometry. Unstained cells and cells stained with either PI or Annexin V alone were utilized for negative controls and compensation. The percent of Annexin V and/or PI positive cells was determined via flow cytometry using the Attune NxT Flow Cytometer (Invitrogen). Data are represented as percent cell population with Annexin V + PI− stained cells representing early apoptotic cells, Annexin V + PI + cells representing late apoptotic cells, cells not stained with Annexin V or PI representing live cells, and cells stained with PI only representing necrotic or dead cells. FlowJo software (FlowJo, LLC) was used for data analysis. Data reported as mean ± SEM.
Supplemental Figure S6: 792 and 1154 treatment and apoptosis. Cells were serum starved and treated with 792 or 1154 to evaluate the cell cycle as previously described (Figure 4).
(A) The percent of cells in the subG1 (<G1) is reported in tabular form. There was no sig-nificant increase in the subG1 population in any of the cell lines except for SH-EP cells […]
subG1 population, further investigation of apoptosis was performed. Cells were treated with 792 or 1154 (0, 10 µM) for 24 hours and were assessed by flow cytometry of Annexin V/PI dual staining, and FlowJo was used for analysis. […]
significant increase (B) in early apoptosis (Annexin V + PI - cells, quadrant Q3) (C) whereas […]
mechanism behind the effect of these drugs on viability. […]
(A flow cytometer gives signals particle by particle.)

The test system of data set [5] is SK-N-AS, SK-N-BE(2), SH-EP, WAC2, COA6, COA129 cells. The data set is described as follows: CellTiter 96 proliferation, long-term cell lines and PDX cells. The data set is classed as cell-based, human. The following applies: increasing doses, 24 h. As to the method: CellTiter 96® Aqueous One Solution Cell Proliferation assay (Promega, Madison, WI, USA) was used to examine proliferation, and alamarBlue® assay (Thermo Fisher Scientific, Inc.) was used to evaluate viability. Cells, concentrations ranging from 5 × 10^3 to 1.5 × 10^4, depending on cell type due to wide variation in growth characteristics between established cell lines and PDX cells, were plated in 96-well plates and treated with increasing doses of 792 or 1154 for 24 h. CellTiter 96® or alamarBlue® dye (10 µL) was added for proliferation and viability assays, respectively. A microplate reader (Epoch Microplate Spectrophotometer, BioTek Instruments, Winooski, VT) measured absorbance at 490 nm for CellTiter 96® and at 570 nm for alamarBlue®, using 600 nm as a reference. […] Experiments were completed with at least three biologic replicates, and data reported as fold change ± SEM.

Where [6] appears, read: SK-N-AS cells, increasing doses.
[7] abbreviates: SK-N-BE(2), SH-EP and WAC2 cells, 0, 10, 20 μM.

On to `O=S(=O)(N[C@H]1COC[C@@H](n2c3ccc(Cl)cc3c3cc(Cl)ccc32)[C@@H]1O)c1ccc(OC(F)(F)F)cc1` [ATUX-792], for which the MYCN protein expression entry in data set [1] (setting [6]) is “increase in MYCN expression”. In addition, the MYCN protein expression entry in data set [1] (setting [7]) is recorded as “decreased expression of MYCN”. The compound further yielded an LD50 in data set [2] of 17.2 µM. Also, in data set [3], the half-life at 1 µM is over 256 min and the microsomal CLint at 1 µM is under 5 µL/min/mg. In data set [4], the “early apoptosis (Annexin V/PI)” value is listed as “significant increase in early apoptosis” and the “late apoptosis (Annexin V/PI)” value is “increased cells in late apoptosis”. Moreover, the proliferation result in data set [5] was “significantly decreased proliferation”.

On to `O=S(=O)(NC1CCCC(N2c3ccccc3CCc3ccccc32)C1O)c1ccc(OC(F)(F)F)cc1` (stereo not drawn) [DBK-1154], for which the MYCN protein expression result in data set [1] (setting [6]) was “increase in MYCN expression”. Moreover, the MYCN protein expression entry in data set [1] (setting [7]) was “decreased expression of MYCN”. In data set [2], this compound yielded an LD50 of 16.6 µM. For the same compound, in data set [3], the half-life at 1 µM was found to be 6 min and the microsomal CLint at 1 µM turned out to be 234 µL/min/mg. Also, the “late apoptosis (Annexin V/PI)” value in data set [4] is recorded as “increased cells in late apoptosis”. In data set [5], the proliferation entry is “significantly decreased proliferation”.

The values are drawn from PMC9026148, “Pre-Clinical Study Evaluating Novel Protein Phosphatase 2A Activators as Therapeutics for Neuroblastoma” (Cancers, 2022).
